{"source": "patent US10882852B1", "about": "“3-vinylquinolines as cancer cells inhibitors” (King Abdulaziz University, priority 2020, dated 2021)", "key": {"bovine brain tubulin": {"system": "bovine brain tubulin", "test": "Tubulin polymerization assay", "assay_type": "biochemical", "details": "for IC50: inhibition of tubulin polymerization, tubulin at 10 μM, read-out: Tubulin assembly IC50 ± SD; for fold less active than CA-4 in tubulin assembly: versus CA-4", "procedure": "The assembly of purified bovine tubulin was monitored using a kit, BK006, purchased from Cytoskeleton Inc., (Denver, Colo., USA). The assay was carried out in accordance with the manufacturer's instructions using the standard assay conditions. […] Light is scattered proportionally to the concentration of polymerized microtubules in the assay. Therefore, tubulin assembly was monitored turbidimetrically at 340 nm in a Spectramax 340 PC spectrophotometer (Molecular Devices, Sunnyvale, Calif., USA). The concentration that inhibits tubulin polymerization by 50% (IC50) was determined using area under the curve (AUC). The AUC of the untreated controls were considered as 100% polymerization. The IC50 value for each compound was computed using GraphPad Prism Software."}, "HL-60 leukemia cells": {"system": "HL-60 leukemia cells", "test": "MTT cell viability assay, HL-60", "assay_type": "cell-based, human", "details": "Homo sapiens", "procedure": "(§1) All the human tumour cell lines MCF-7, HCT-116, HL-60 and HeLa were cultured in Dulbecco's Modified Eagle's Medium (DMEM) with 10% fetal bovine serum, 2 mM L-glutamine and 100 µg/mL penicillin/streptomycin. Cells were maintained at 37° C. in 5% CO2 in a humidified incubator. All cells were sub-cultured 3 times/week by trypsinization using TrypLE Express (1×).\n(§2) The quinoline compounds were evaluated for antiproliferative effect using the MTT viability assay of four cancer cell lines (MCF-7, HCT-116, HL-60 and HeLa) and normal breast cells MCF-10A to calculate the relative IC50 values for each compound. Cells were seeded in triplicate in 96-well plates at a density of 10×10^3 cells/ml in a total volume of 200 μl per well. 0.1% of DMSO was used as a vehicle control. After this time, they were treated with 2 μl test compound which had been pre-prepared as stock solutions in ethanol to furnish the concentration range of study, 1 nM to 50 μM, and re-incubated for a further 72 h. The culture medium was then removed, and the cells washed with 100 μL phosphate buffered saline (PBS) and 50 μL MTT added, to reach a final concentration of 1 mg/mL MTT added. Cells were incubated for 2 h in darkness at 37° C. At this point solubilisation was begun through the addition of […] DMSO and the cells maintained at room temperature in darkness for 20 min to ensure thorough colour diffusion before reading the absorbance. Plates were incubated for 72 hours at 37° C.+5% CO2, The MTT (5 mg/mL in PBS) was added and incubated for another 4 h, the optical density was detected with a microplate reader at 570 nm. Results were expressed as percentage viability relative to vehicle control (100%). Dose response curves were plotted and IC50 values (concentration of drug resulting in 50% reduction in cell survival) were obtained using the commercial software package Prism (GraphPad Software, Inc., La Jolla, Calif., USA). All the experiments were repeated in at least three independent experiments."}, "[1]": {"system": "MCF-7 breast cancer cells", "test": "MTT cell viability assay, MCF-7", "assay_type": "cell-based, human", "details": "Homo sapiens, MCF7, MCF-7, MTT", "procedure": "as §1, §2"}, "[2]": {"system": "HCT-116 colon cancer cells", "test": "MTT cell viability assay, HCT-116", "assay_type": "cell-based, human", "details": "Homo sapiens, HCT-116, MTT", "procedure": "as §1, §2"}, "[3]": {"system": "HeLa cervical cancer cells", "test": "MTT cell viability assay, HeLa", "assay_type": "cell-based, human", "details": "Homo sapiens", "procedure": "as §1, §2"}, "[4]": {"system": "MCF-7, HL-60, HCT-116 and HeLa cancer cells", "test": "MTT antiproliferative activity over the panel of four cancer cell lines", "assay_type": "cell-based, human", "details": "for antiproliferative activity (in words): four cancer cell lines, MTT", "procedure": "as §1, §2"}, "[5]": {"details": "HL-60, 72 h, HL-60, MTT, 72 h, mean ± spread of three experiments, read-out: IC50 value (μM) HL-60"}}, "note": "“And” between values parts separate entries of the source, which are not always exact repeats. Identical values can stand only once. Like-named read-outs stand apart in the source and are kept apart here."}
{"smiles": "COc1cc(C2=NC(=Cc3cc4ccccc4nc3OC)C(=O)O2)cc(OC)c1OC", "note": "[Compound 8a, 4-[(2-Methoxyquinolin-3-yl)methylene]-2-(3,4,5-trimethoxyphenyl)oxazol-5(4H)-one]", "values": [{"measurement": "IC50", "setting": "bovine brain tubulin", "result": "13900 nM and 14000 nM"}, {"measurement": "fold less active than CA-4 in tubulin assembly", "setting": "bovine brain tubulin", "result": 4, "unit": "fold"}, {"measurement": "melting point", "result": "215 to 217", "unit": "°C"}]}
{"smiles": "COc1cc(C2=NC(=Cc3cc4cc(C)ccc4nc3OC)C(=O)O2)cc(OC)c1OC", "note": "[Compound 8b, 4-[(2-Methoxy-6-methylquinolin-3-yl)methylene]-2-(3,4,5-trimethoxyphenyl)oxazol-5(4H)-one]", "values": [{"measurement": "melting point", "result": "218 to 220", "unit": "°C"}]}
{"smiles": "COc1cc(C2=NC(=Cc3cc4cccc(C)c4nc3OC)C(=O)O2)cc(OC)c1OC", "note": "[Compound 8d, 4-[(2-Methoxy-8-methylquinolin-3-yl)methylene]-2-(3,4,5-trimethoxyphenyl)oxazol-5(4H)-one]", "values": [{"measurement": "melting point", "result": "236 to 238", "unit": "°C"}]}
{"smiles": "COc1ccc2nc(OC)c(/C=C3\\N=C(c4cc(OC)c(OC)c(OC)c4)OC3=O)cc2c1", "note": "[Compound 8e]", "values": [{"measurement": "IC50", "setting": "HL-60 leukemia cells; HL-60, HL-60, MTT, read-out: IC50 in HL-60 (unit inferred)", "result": 0.0685, "unit": "µM"}, {"measurement": "IC50", "setting": "[1]; read-out: IC50 in MCF-7 (unit inferred)", "result": 56.8, "unit": "nM"}, {"measurement": "IC50", "setting": "[2]; read-out: IC50 in HCT-116 (unit inferred)", "result": 0.0318, "unit": "µM"}, {"measurement": "IC50", "setting": "[3]; read-out: IC50 in HeLa (unit inferred)", "result": 10.1, "unit": "nM"}, {"measurement": "IC50", "setting": "bovine brain tubulin", "result": "2200 nM and 2260 nM"}, {"measurement": "melting point", "result": "242 to 244", "unit": "°C"}]}
{"smiles": "COc1ccc2cc(C=C3N=C(c4cc(OC)c(OC)c(OC)c4)OC3=O)c(OC)nc2c1", "note": "[Compound 8f, 4-[(2,7-Dimethoxyquinolin-3-yl)methylene]-2-(3,4,5-trimethoxyphenyl)oxazol-5(4H)-one]", "values": [{"measurement": "melting point", "result": "221 to 223", "unit": "°C"}]}
{"smiles": "COc1cc(C2=NC(=Cc3cc4ccc(OC(C)C)cc4nc3OC)C(=O)O2)cc(OC)c1OC", "note": "[Compound 8g, 4-[(7-Isopropoxy-2-methoxyquinolin-3-yl)methylene]-2-(3,4,5-trimethoxyphenyl)oxazol-5(4H)-one]", "values": [{"measurement": "IC50", "setting": "bovine brain tubulin", "result": 8230, "unit": "nM"}, {"measurement": "fold less active than CA-4 in tubulin assembly", "setting": "bovine brain tubulin", "result": 6, "unit": "fold"}, {"measurement": "melting point", "result": "227 to 229", "unit": "°C"}]}
{"smiles": "COc1cc(C2=NC(=Cc3cc4ccc(OCc5ccccc5)cc4nc3OC)C(=O)O2)cc(OC)c1OC", "note": "[Compound 8h, 4-[(7-(Benzyloxy)-2-methoxyquinolin-3-yl)methylene]-2-(3,4,5-trimethoxyphenyl)oxazol-5(4H)-one]", "values": [{"measurement": "melting point", "result": "247 to 249", "unit": "°C"}]}
{"smiles": "COc1cc(C2=NC(=Cc3cc4ccccc4nc3OC)C(=O)N2)cc(OC)c1OC", "note": "[Compound 9a, 5-[(2-Methoxyquinolin-3-yl)methylene]-2-(3,4,5-trimethoxyphenyl)-3,5-dihydro-4H-imidazol-4-one]", "values": [{"measurement": "melting point", "result": "230 to 232", "unit": "°C"}]}
{"smiles": "COc1cc(C2=NC(=Cc3cc4cc(C)ccc4nc3OC)C(=O)N2)cc(OC)c1OC", "note": "[Compound 9b, 5-[(2-Methoxy-6-methylquinolin-3-yl)methylene]-2-(3,4,5-trimethoxyphenyl)-3,5-dihydro-4H-imidazol-4-one]", "values": [{"measurement": "antiproliferative activity (in words)", "setting": "[4]", "result": "potent activity in submicromolar range"}, {"measurement": "melting point", "result": "223 to 225", "unit": "°C"}]}
{"smiles": "COc1cc(C2=NC(=Cc3cc4ccc(C)cc4nc3OC)C(=O)N2)cc(OC)c1OC", "note": "[Compound 9c, 5-[(2-Methoxy-7-methylquinolin-3-yl)methylene]-2-(3,4,5-trimethoxyphenyl)-3,5-dihydro-4H-imidazol-4-one]", "values": [{"measurement": "IC50", "setting": "[4]; Homo sapiens, panel of HL-60, MCF-7, HCT-116, HeLa, read-out: IC50 values across the four cancer cell lines", "result": "22300 to 73300", "unit": "nM"}, {"measurement": "antiproliferative activity (in words)", "setting": "[4]", "result": "potent activity in submicromolar range"}, {"measurement": "IC50", "setting": "bovine brain tubulin", "result": "20200 nM and 20300 nM"}, {"measurement": "fold less active than 8c in tubulin polymerization", "setting": "bovine brain tubulin; versus oxazolone derivative 8c", "result": 16, "unit": "fold"}, {"measurement": "melting point", "result": "236 to 238", "unit": "°C"}]}
{"smiles": "COc1cc(C2=NC(=Cc3cc4cccc(C)c4nc3OC)C(=O)N2)cc(OC)c1OC", "note": "[Compound 9d, 5-[(2-Methoxy-8-methylquinolin-3-yl)methylene]-2-(3,4,5-trimethoxyphenyl)-3,5-dihydro-4H-imidazol-4-one]", "values": [{"measurement": "antiproliferative activity (in words)", "setting": "[4]", "result": "potent activity in submicromolar range"}, {"measurement": "melting point", "result": "233 to 235", "unit": "°C"}]}
{"smiles": "COc1ccc2nc(OC)c(C=C3N=C(c4cc(OC)c(OC)c(OC)c4)NC3=O)cc2c1", "note": "[Compound 9e, 5-[(2,6-Dimethoxyquinolin-3-yl)methylene]-2-(3,4,5-trimethoxyphenyl)-3,5-dihydro-4H-imidazol-4-one]", "values": [{"measurement": "IC50", "setting": "HL-60 leukemia cells; [5]", "result": "0.272 ± 0.05", "unit": "µM"}, {"measurement": "IC50", "setting": "[1]; read-out: IC50 in MCF-7", "result": 42.9, "unit": "nM"}, {"measurement": "IC50", "setting": "[2]; 72 h, read-out: IC50 value (μM) HCT-116", "result": "0.085 ± 0.003", "unit": "µM"}, {"measurement": "IC50", "setting": "[3]; read-out: IC50 in HeLa", "result": 62.3, "unit": "nM"}, {"measurement": "IC50", "setting": "bovine brain tubulin", "result": "1400 nM and 1480 nM"}, {"measurement": "melting point", "result": "253 to 255", "unit": "°C"}]}
{"smiles": "COc1ccc2cc(C=C3N=C(c4cc(OC)c(OC)c(OC)c4)NC3=O)c(OC)nc2c1", "note": "[Compound 9f, 5-[(2,7-Dimethoxyquinolin-3-yl)methylene]-2-(3,4,5-trimethoxyphenyl)-3,5-dihydro-4H-imidazol-4-one]", "values": [{"measurement": "IC50", "setting": "[1]; read-out: IC50 in MCF-7", "result": 92.7, "unit": "nM"}, {"measurement": "IC50", "setting": "[2]; read-out: IC50 in HCT-116", "result": 0.188, "unit": "µM"}, {"measurement": "IC50", "setting": "[3]; read-out: IC50 in HeLa", "result": 101, "unit": "nM"}, {"measurement": "melting point", "result": "241 to 243", "unit": "°C"}]}
{"smiles": "COc1cc(C2=NC(=Cc3cc4ccc(OC(C)C)cc4nc3OC)C(=O)N2)cc(OC)c1OC", "note": "[Compound 9g, 5-((7-Isopropoxy-2-methoxyquinolin-3-yl)methylene)-2-(3,4,5-trimethoxyphenyl)-3,5-dihydro-4H-imidazol-4-one]", "values": [{"measurement": "melting point", "result": "238 to 240", "unit": "°C"}]}
{"smiles": "COc1cc(C2=NC(=Cc3cc4ccc(OCc5ccccc5)cc4nc3OC)C(=O)N2)cc(OC)c1OC", "note": "[Compound 9h, 5-[(7-(Benzyloxy)-2-methoxyquinolin-3-yl)methylene]-2-(3,4,5-trimethoxyphenyl)-3,5-dihydro-4H-imidazol-4-one]", "values": [{"measurement": "IC50", "setting": "HL-60 leukemia cells; [5]", "result": "4.93 ± 0.26", "unit": "µM"}, {"measurement": "melting point", "result": "259 to 261", "unit": "°C"}]}
